We go through one compound from patent publication US20130190370A1, “Novel Tetrahydronaphalene Antagonists to the Thromboxane A2 (TP) Receptor” (The Trustees of the University of Pennsylvania, priority 2010, published 2013).

One may read the Kp as tissue or fluid exposure divided by exposure in the circulation. The fraction unbound is the share of the substance not bound to proteins or other matrix.

One data set can be described thus: in vivo. The following applies: female, B6C3HF1, mouse, in vivo, ip, 5 mg/kg. Here is the method: One-month old B6C3HF1 female mice were given intraperitoneal injections of compounds at 5 mg/kg. 1 hour after injection, mice were lethally anesthetized with an intraperitoneal injection of ketamine hydrochloride (1 mg/10 g) and xylazine (0.1 mg/10 g) and perfused intracardially with PBS in accordance with protocols approved by the University of Pennsylvania.
Brain samples were homogenized in 10 mM ammonium acetate, pH 5.7 (1:2; w/v) using a handheld sonic homogenizer. Compound from 50 μL of brain homogenate or plasma was extracted with 200 μL acetonitrile, centrifuged, and the supernatant removed for LC/MS/MS analysis. Compounds were detected using multiple reaction monitoring (MRM) of their specific collision-induced ion transitions and quantified using peak areas.
The LC/MS/MS system was comprised of an Agility UPLC, a TQ MS, and controlled using MassLynx software (Waters Corporation, Milford, Mass., USA). Samples were separated on an Aquity BEH C18 column (1.7 μm, 2.1×50 mm) at 35° C. For operation in positive electrospray ionization mode, the mobile phase A was 0.1% (v/v) formic acid, and B was either acetonitrile or methanol with 0.1% (v/v) formic acid. For operation in negative electrospray ionization mode, the mobile phase A was 10 mM ammonium acetate, and B was methanol with 10 mM ammonium acetate, Injections of 5 μL were separated at a flow rate of 0.6 mL/min using a gradient from 5% to 95% B over two minutes followed by wash and re-equilibration steps.
The MS was operated with a desolvation temperature of 450° C. and a source temperature of 150° C. Desolvation and source nitrogen gas flows were 900 L/hr and 50 L/hr, respectively. Collision cell argon gas flow was 0.1 mL/min. Source and analyzer voltages were optimized for each compound using the MassLynx auto tune utility. Compound standards at 1000 ng/mL in 50% acetonitrile were infused at 30 μL/min and combined with flow from the UPLC at 0.6 mL/min and 50% B.
Standard curves were generated from spiked brain homogenate and plasma prepared at 4, 40, 400 and 4000 ng/mL and extracted as above. Peak area was plotted versus concentration and a 1/x weighted linear regression curve was used to quantify the unknowns using the average peak area from triplicate injections,
The following experiments were designed to analyze TP receptor antagonists to determine their relative BBB penetration. The TP receptor antagonists were administered via i.p. injection at 5 mg/kg to normal mice, and brain and plasma compound concentrations were assessed by LC-MS/MS at 1 and 4 hours after dosing.
To examine the blood-brain barrier permeability of these compounds, one-month old B6C3F1 mice were injected at 5 mg/kg and sacrificed 1 hour after injection.

Data set [1] in a line: Unbound fractions in plasma and brain homogenates by equilibrium dialysis. It counts as in vitro ADME. The following applies: for fraction unbound: equilibrium dialysis. The source says: Without wishing to be bound by any particular theory, it is believed that it is possible (although uncommon) for a BBB-permeable compound to have a very low B/P ratio if the fraction of free, unbound drug is much greater in the […]. More specifically, a drug that is freely diffusible across the BBB will at equilibrium have a free drug B/P ratio (B/Pfree)=1, where B/Pfree=B/P×fu(brain))/fu(plasma) (Maurer, et al., 2005, Drug Metab Dispos. 33:175-181; Kalvasset al., 2007, Drug Metab Dispos. 35:660-666) and fti represents unbound drug fractions. […] To ensure that the low B/P ratios obtained with the TP antagonists of Table 1 were truly reflective of poor BBB permeability, the unbound fractions in plasma and brain homogenates were measured using established equilibrium dialysis methods (Maurer, et al., 2005, Drug Metab Dispos. 33:175-181; Kalvasset al., 2007, Drug Metab Dispos. 35:660-666; Friden, et al., 2007, Drug Metab Dispos. 35:1711-1719). […] This is further illustrated by comparing the calculated B/Pfree ratios (Table 1), which are <<1. Because the existing repertoire of TP receptor antagonists share common structural features, including free carboxylate moieties, it is highly unlikely that any of these existing compounds would be sufficiently brain-penetrant to be potential AD therapeutics.
A general note: Equilibrium dialysis compares concentrations on both sides of a semipermeable membrane.

The next data set concerns Tg2576 mice. The following applies: cited from earlier work.
[2] abbreviates: B/Pfree (unbound drug brain-to-plasma ratio).

Read-outs that look alike come from different tables or passages of the source.

Regarding `Cc1ccc2c(c1CCC(=O)O)CC[C@@H](NS(=O)(=O)c1ccc(Cl)cc1)C2` [Compound S18886], the Kp at 1 h in “in vivo” (B/P (brain-to-plasma ratio)) was found to be 0.02; in “in vivo” (setting [2]) it was 0.04. In addition, the Kp at 4 h in the data set “in vivo” (B/P (brain-to-plasma ratio)) turned out to be 0.05; in the data set “in vivo” (setting [2]) it was 0.08. The concentration at 1 h worked out at 42.4 ng/mL in the data set “in vivo” (Brain) and 1710 ng/mL in “in vivo” (Plasma). Besides, the concentration at 4 h in “in vivo” (Brain) was determined as 9 ng/mL; in “in vivo” (Plasma), 190 ng/mL. The fraction unbound stood at 0.044 in data set [1] (brain homogenate, read-out: fu(brain) (fraction unbound)) and 0.026 in data set [1] (plasma, read-out: fu(plasma) (fraction unbound)). Also, the plasma/brain unbound fraction ratio in data set [1] (plasma and brain homogenate, ratio of unbound fractions plasma/brain, read-out: fu(pl)/fu(br)) is 0.59. Also, in the data set on Tg2576 mice (Tg2576 mice, drinking water), the Aβ levels result is reported as “reduced Aβ levels”. In addition, the plaque load result in the data set on Tg2576 mice (long-term treatment, relative to untreated mice) is given as “significant diminution of plaque load”.
